The source of these data is patent publication US9115073B2, “1,3-diphenylpropane derivatives, preparations and uses thereof” (GENFIT, priority 2011, dated 2015).

Data set [1] in a line: Compound pharmacokinetics study in mice (plasma and brain). The conditions noted are these: mouse; for AUC(0-t): iv (2 mpk) or PO (10 mpk), followed for 24 hours. The data set is classed as in vivo. How it is done:
Compound Pharmacokinetics Study in Mice
The compound was administered to six male swiss mice (five weeks old) by the PO route and six male mice by the iv route (caudal vein). […] For the PO route (10 mg/kg), the compound was dissolved in a solution of 0.5% Methyl cellulose (ref sigma M0262) and 0.3% Polysorbate 80 (Tween 80—ref sigma P8074). During the iv administration and blood sampling animals were anesthetized with Isofluorane® (from Belamont) using an anaesthetic system (Minerve). At the precise time-point, blood samplings were done at the retro-orbital sinus, with a capillary tube. The blood volume collected per each time-point was 0.2-0.3 ml. Blood samples were collected into tubes containing both lithium and heparin and then centrifuged at 2500 rpm at 4° C. Plasma was removed and transferred into polypropylene tubes. Individual plasma aliquots were frozen at −20° C. (±5° C.) and stored until analysis.
After blood sampling, the animals were perfused with 7 ml cold saline solution directly into the heart to extract the maximum of blood from the brain vasculature. Animals were then beheaded and the brain tissue collected and frozen at −20° C. (±5° C.) and stored until analysis. Prior to the sample analysis, the suitability of the analytical method to detect the compounds to be evaluated was performed as described below. The molecular and daughter ions were selected for each molecule by direct infusion into the MS-MS system. For those plasma samples which are mixed prior to analysis, precaution was taken to avoid mixing common moieties both with regards to the parent compounds as well as potential metabolites. According to the expected sensitivity, 8 point calibration standards (1, 5, 10, 50, 100, 500, 1000 and 5000 ng/mL) were run using standard conditions which consist to LC/MS/MS system with C18 column after precipitation of the plasma proteins with acetonitrile before the start of the analytical test. Calibration standards were performed in each matrix (plasma and brain). Prior to analysis, 100 μL of each plasma sample was mixed with 300 μL acetonitrile. Following protein precipitation, samples were vortex mixed for 30 seconds, centrifuged 5 min at 15000 tr/min and the supernatant was removed. Analyses were performed using LC/MS/MS determination according to previous analytical test results. Brains were homogenized with a potter using water (1/1, w/w). 100 μl of the homogenate was mixed with 100 μl of acetonitrile. The mixture was mixed (Vortex) for 30 seconds, then centrifuged during 5 min at 15000 tr/min. Brain homogenate supernatants were directly measured by LC/MS/MS after centrifugation. LC-MS/MS system was used with a C18 Kromasil column and API4000® from Applied Biosystem or Quattro® from Waters as mass spectrometers.

The test system of another data set is APPPS1 mice. Nature of the data set: Alzheimer's disease model (APPPS1 mice): Morris-Water-Maze test. To be noted: 60 days, +/- standard deviation. The format is in vivo, mouse.

Molecules are shown by their SMILES.

For the molecule `COC(c1ccc(OC(F)(F)F)cc1)C1CC1c1cc(C)c(OC(C)(C)C(=O)O)c(C)c1` (single isomer, unassigned) [Cpd 14-1-2, 2-(4-(2-(methoxy(4-(trifluoromethoxy)phenyl)methyl)cyclopropyl)-2,6-dimethylphenoxy)-2-methylpropanoic acid], the bioavailability in data set [1] (male, Swiss, plasma, PO (10 mpk) versus iv (2 mpk), read-out: F % (bioavailability)) was determined as 93%. The AUC(0-t) in data set [1] (male, Swiss, brain) was 26700 ng·h/mL; in data set [1] (male, Swiss, plasma), 71800 ng·h/mL. Further, the Kp in data set [1] (male, Swiss, from AUC comparison brain to plasma, read-out: part of the administered compound that penetrates into the brain) was determined as 0.37. Also, the brain/plasma ratio in data set [1] (AUC comparison (brain exposure to plasma exposure ratio)) came out at 0.37. Also, the “F % (bioavailability)” value in data set [1] (PO (10 mpk) versus iv (2 mpk)) amounted to 92.9%. The “Morris-Water maze distance, mean reduction from untreated APPPS1 mice” value is listed as 22.6 % +/− 21% (*) with APPPS1 mice (1 mpk per day) and 31.1 % +/− 18 % (**) in the data set on APPPS1 mice (10 mpk per day). Further, the “Morris-Water maze latency, mean reduction from untreated APPPS1 mice” value in the data set on APPPS1 mice (1 mpk per day) is given as 45.6 % +/− 16 % (**); in the data set with APPPS1 mice (10 mpk per day) it was 39.9 % +/− 20 % (**).
